{
  "source": "patent US20130096054A1",
  "about": "“LATENT HUMAN IMMUNODEFICIENCY VIRUS REACTIVIATION” (priority 2010, published 2013)",
  "molecules": {"B1": {"name": "HEXIM-1 (other, UniProt O94992 1-359, looked up)", "chain": "MAEPFLSEYQHQPQTSNCTGAAAVQEELNPERPPGAEERVPEEDSRWQSRAFPQLGGRPGPEGEGSLESQPPPLQTQACPESSCLREGEKGQNGDDSSAGGDFPPPAEVEPTPEAELLAQPCHDSEASKLGAPAAGGEEEWGQQQRQLGKKKHRRRPSKKKRHWKPYYKLTWEEKKKFDEKQSLRASRIRAEMFAKGQPVAPYNTTQFLMDDHDQEEPDLKTGLYSKRAAAKSDDTSDDDFMEEGGEEDGGSDGMGGDGSEFLQRDFSETYERYHTESLQNMSKQELIKEYLELEKCLSRMEDENNRLRLESKRLGGDDARVRELELELDRLRAENLQLLTENELHRQQERAPLSKFGD"}},
  "key": {"[1]": {"system": "latently HIV-1 infected reporter T cell lines (5F3, 8E12, CA5 and 12D4)", "test": "HIV-1 reactivation in latently HIV-1 infected reporter T cell lines (EGFP, flow cytometry)", "type": "cell-based", "procedure": "FIGS. 1A and 1B show culture supernatants from Massilia timonae reactivate latent HIV-1 infection. […] Untreated control cells and HRF-treated cells were subjected to flow cytometric analysis to determine enhanced green fluorescent protein (EGFP) expression as a direct and quantitative marker of HIV-1 expression 24 hours post stimulation. FSC/SSC dot plots are represented to evaluate cell viability as a function of changes in the FSC (cell size)—SSC (granularity) phenotype of the cells. FIG. 1B is a histogram showing the reproducibility of the observed HIV-1 reactivation. Three independent preparations of HRF (batches HRF1-3) on four different latently infected T cell lines (5F3, 8E12, CA5 and 12D4) were tested. The percentage of EGFP positive cells following stimulation is depicted in the histogram. Cell culture supernatants of Pseudomonas aeruginosa cultures, grown under similar conditions, were used as specificity controls."}, "[2]": {"system": "latently HIV-1 infected monocytic THP89GFP cells", "test": "HIV-1 reactivation in latently HIV-1 infected monocytic THP89GFP cells", "type": "cell-based"}, "[3]": {"system": "latently HIV-1 infected CA5 T cells", "procedure": "CA5 T cells were pretreated with increasing concentrations of dactinomycin (DM) (FIG. 11A), the DNA intercalator daunorubicin (DR) (FIG. 11B), or the transcription inhibitors DRB (FIG. 11 C) and α-amanitin (FIG. 11D) (concentrations indicated). The cells were then left unstimulated (white circles) or activated with a sub-optimal concentration of HRF (black circles). Reactivation levels were determined as the percentage of GFP-positive cells 24 hours after stimulation. Viability of the cells correlates with the size of the symbol (size range adjusted to 5-95%).\nInfection levels in the cell cultures were monitored by flow cytometric analysis of EGFP expression. Flow cytometric analysis was performed on a GUAVA EasyCyte (Millipore; Billerica, Mass.), or a LSRII (Becton & Dickinson; Franklin Lakes, N.J.).\nBacteria from various sources were isolated on TSA II agar plates containing 5% sheep blood. Bacterial isolates were then grown in RPMI 1640 medium supplemented with 10% FBS. After two days of incubation at 37° C. bacteria were pelleted and resuspended in RPMI medium to an optical density (OD600) of 8, aliquoted and frozen at −80° C. Unless otherwise indicated, Massilia timonae was grown in RPMI 1640 medium supplemented with 10% FBS. Typically, medium was inoculated with Massilia timonae from frozen stocks to an OD600 of 0.01. After 48 hours at 37° C., the culture was centrifuged at 3200 g to separate bacteria from the culture medium. Bacteria were resuspended in fresh medium to an OD600 of 8 and frozen to be used as references and stock cultures. The supernatant was then centrifuged at 10,000 g for 20 minutes and sterilized by passage through an 0.2 μm PVDF filter with low protein binding ability. HRF activity was determined by its ability to reactivate latent HIV-1 infection in CA5 cells. Only supernatants of which 6 μl reactivated infection in at least 60% of CA5 cells were used to study HRF properties.\n(§1) Infection levels in the cell cultures were monitored by flow cytometric (FCM) analysis of GFP expression. FCM analysis was performed on a GUAVA EasyCyte (GUAVA Technologies, Inc.; Millipore; Billerica, Mass.) and a BD FACSCalibur or a LSR11 (Becton & Dickinson; Franklin Lakes, N.J.). Cell sorting experiments were performed using a FACSAria™ Flow Cytometer (Becton&Dickinson). Data analysis was performed using either CellQuest (Becton&Dickinson) or GUAVA Express (GUAVA Technologies, Inc.).\nTo identify the optimal concentration of dactinomycin, CA5 T cells were pretreated with increasing concentrations of dactinomycin (0.0001 and 1 μg/ml), and then left untreated or stimulated with a sub-optimal concentration of HRF or TNF-α. […] Twenty four hours after activator addition, levels of HIV-1 reactivation were determined as the percentage of GFP-positive cells using flow cytometric analysis, which allowed for the simultaneous determination of cell viability."}, "[4]": {"system": "latently HIV-2 infected J2574 reporter T cells (HIV-2 7312A)", "test": "Reactivation of latent HIV-2 infection in J2574 reporter T cells", "type": "cell-based", "protocol": "J2574 reporter T cells were infected with HIV-2 7312A and a latently infected cell population was established (>90% latently infected cells). The cell population was then pretreated with varying concentrations of dactinomycin (0-8 ng/ml) for 18 hours and then either left untreated (C) or stimulated with a sub-optimal dose of HRF, which by itself triggered reactivation in 10% of the cells. Reactivation levels were determined 24 hours post HRF activation by quantifying the level of GFP-positive cells using flow cytometric analysis.\nJ2574 reporter T cells were generated by retrovirally transducing Jurkat T cells with a HIV-1 reporter construct (p2574) in which the HIV-1 LTR controls the expression of GFP. The HIV-1 LTR and the GFP gene are separated by a 2,500 base pair (bp) spacer element. Lentiviral particles were produced by transfecting 293T cells with p2574 and supplying gag-pol-rev-tat in trans. VSV-G was used as viral envelope protein. Following lentiviral transduction of Jurkat cells, all cells that spontaneously expressed GFP were removed by cell sorting. The GFP-negative population was then activated with PMA to identify all cells that would harbor an inducible LTR-GFP-LTR integration event. Cells that turned GFP-positive following stimulation were again selected by cell sorting. GFP expression in this population ceased after a few days leaving a population of GFP-negative reporter cells. The amount of founder cells for this population is calculated to represent >50,000 individual integration events.\nTo determine the ability of dactinomycin to prime a latent HIV-2 infection, a latently HIV-2 infected population of GFP reporter T cells were tested. Briefly, to create the latent HIV-2 infected population, J2574 reporter cells were infected with HIV-2 7312A and a population of latently HIV-2 infected cells was generated by removing the actively infected, GFP-positive cells using a fluorescence activated cell sorter."}, "[5]": {"system": "latently HIV-1 infected J89GFP T cells", "test": "HIV-1 reactivation in latently HIV-1 infected J89GFP T cells (flow cytometry / HTS)", "type": "cell-based", "procedure": "as §1"}, "[6]": {"system": "latently HIV-1 infected EF7 cells", "test": "HIV-1 reactivation in latently HIV-1 infected EF7 T cells (converse sense integration)", "type": "cell-based", "details": "TNF-α after 4 ng/ml dactinomycin for 18 hours", "procedure": "FIGS. 13A-B show the effect of dactinomycin on latent infection as a function of the orientation of integration relative to the direction of host-gene transcription. HIV-1 can integrate in the same transcriptional orientation as the host-gene or in the converse sense. Two latently HIV-1 infected T cell lines, which were determined to have HIV-1 integrated in the same sense orientation (CA5 cells) (FIG. 13A) and in the converse sense orientation (EF7 cells) (FIG. 13B) were used. For either cell line, the host-gene name, the position of integration and the chromosome number is given. For either T cell line, reactivation levels achieved by TNF-α treatment alone or by TNF-α stimulation following pretreatment with 4 ng/ml dactinomycin for 18 hours are shown. Reactivation levels were determined using flow cytometric analysis for GFP expression. The gray dotted line represents maximum achievable reactivation levels using PMA."}, "[7]": {"system": "chronically actively infected T cell lines JNLG#35 and JNLG#44", "test": "Active HIV-1 transcription in chronically actively infected GFP-reporter T cells (GFP MCF)", "type": "cell-based", "details": "48 hours after addition", "procedure": "Changes in HIV-1 transcription levels were determined after 48 hours by measuring GFP mean channel fluorescence intensity (GFP MCF). GFP MCF was plotted over the drug concentration for dactinomycin (FIG. 12A), the DNA intercalators daunorubicin (DM) (FIG. 12B) and rebeccamycin (RM) (FIG. 12C), as well as the transcription inhibitors ICRF-193 (FIG. 12D), DRB (FIG. 12E) and α-amanitin (FIG. 12F). The size of symbols indicates the respective cell viability in the sample (size range adjusted to 5-95%).\nFor this purpose, each of the compounds was titrated over a relevant range of concentrations on two chronically actively infected T cell lines (JNLG#35 and JNLG#44). These clonal cell lines are infected with a GFP-reporter virus. Forty eight hours after addition of the compounds, the effect of each compound on HIV-1 transcription was determined by flow cytometric analysis quantifying GFP mean channel fluorescence intensity (MCF)."}, "[8]": {"biological_target": "T1, positive transcription elongation factor (P-TEFb), a complex of CDK9 and Cyclin T1 (UniProt P50750 1-372; O60563 1-726)", "T1 construct": "also called CDK9/CycT1; small complex", "T1 sequence (P50750 whole entry, chain 1 of 2)": "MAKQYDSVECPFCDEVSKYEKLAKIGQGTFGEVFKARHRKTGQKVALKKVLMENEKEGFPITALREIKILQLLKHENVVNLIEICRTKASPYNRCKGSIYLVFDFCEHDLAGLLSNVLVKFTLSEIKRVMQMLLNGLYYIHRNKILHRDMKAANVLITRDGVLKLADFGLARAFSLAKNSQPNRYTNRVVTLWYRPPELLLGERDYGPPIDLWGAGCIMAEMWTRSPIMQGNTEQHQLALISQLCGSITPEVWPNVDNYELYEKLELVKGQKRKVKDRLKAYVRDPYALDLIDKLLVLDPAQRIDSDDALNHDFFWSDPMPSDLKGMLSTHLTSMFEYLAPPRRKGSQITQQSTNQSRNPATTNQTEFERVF", "T1 sequence (O60563 whole entry, chain 2 of 2)": "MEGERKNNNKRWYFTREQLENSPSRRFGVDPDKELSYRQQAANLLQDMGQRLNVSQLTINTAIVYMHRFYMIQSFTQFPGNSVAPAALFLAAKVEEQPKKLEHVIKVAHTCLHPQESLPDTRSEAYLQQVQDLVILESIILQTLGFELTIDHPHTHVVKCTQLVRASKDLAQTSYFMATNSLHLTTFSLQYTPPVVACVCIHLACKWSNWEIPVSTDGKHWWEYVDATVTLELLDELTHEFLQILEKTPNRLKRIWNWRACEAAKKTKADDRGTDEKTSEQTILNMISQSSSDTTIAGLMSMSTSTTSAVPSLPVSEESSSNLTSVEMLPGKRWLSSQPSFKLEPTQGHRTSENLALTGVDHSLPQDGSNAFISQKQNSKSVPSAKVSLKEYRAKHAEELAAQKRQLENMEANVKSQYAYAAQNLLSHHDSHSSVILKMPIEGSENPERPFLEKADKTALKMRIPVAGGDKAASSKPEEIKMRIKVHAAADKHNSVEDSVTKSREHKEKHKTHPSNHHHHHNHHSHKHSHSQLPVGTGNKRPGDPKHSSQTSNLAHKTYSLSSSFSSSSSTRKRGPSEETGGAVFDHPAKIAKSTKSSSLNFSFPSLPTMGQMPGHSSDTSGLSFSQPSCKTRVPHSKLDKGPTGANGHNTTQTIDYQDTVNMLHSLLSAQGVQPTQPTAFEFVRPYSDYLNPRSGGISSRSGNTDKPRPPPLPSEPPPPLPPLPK", "test": "glycerol gradient (10-45%) sedimentation of J89GFP cell lysates, Western blot of fractions with anti-CDK9 and anti-HEXIM-1", "procedure": "Each gradient fraction was separated on a 10% SDS-PAGE gel and transferred by Western blot. […] Band densities were determined using ImageJ and are presented as relative band density. […] Band densities were determined using ImageJ and are presented as relative band density.\nTen million J89GFP or CA5 T cells were left untreated or treated with 0.004 μg/mL, […] 1 μg/mL dactinomycin for 18 hours or 1 hour, respectively. Cells were washed twice with cold PBS, then lysed for 30 minutes on ice in lysis buffer (0.5% TritonX100, 20 mM HEPES (pH7.9), 150 mM NaCl, 20 mM KCl, 2 mM MgCl2, 1 mM DTT, 0.2 mM EDTA, and protease inhibitor cocktail (P8340; SIGMA)), followed by centrifugation at 14,000 rpm for 10 minutes. The same amount of protein lysate was fractionated on 5 ml of a 10-45% glycerol gradient in lysis buffer in a SW-Ti55 rotor (Beckman Coulter; Miami, Fla.) for 16 hours at 45,000 rpm. Fractions were resolved on 10% SDS-PAGE and transferred to polyvinylidene fluoride membrane. The antibodies used for Western blotting were rabbit anti-Cdk9 (sc-484; Santa Cruz Biotechnology; Santa Cruz, Calif.) and rabbit anti-HEXIM1 (ab25388; Abcam; Cambridge, Mass.), respectively. […]"}},
  "note": "Values joined by “and” are separate entries in the source; they are usually repeats but may differ in a detail not shown here. Equal entries are not always repeated. *1 amine or outer side, *2 acyl side, *3 side chain or, on linkers, in order; H or OH if unused. Where a SMILES comes first, the peptide text is derived from it. Bridges are numbered along the chain shown (N, C = ends). Roman numbers before positions name the chains, in order. [ ]: non-standard residue; d: D form. Actinocin(9to1) = Cc1c2oc3c(C)ccc(C(=O)[*:1])c3nc-2c(C(=O)[*:2])c(N)c1=O; NMeV = CN[C@H](C(=O)O)C(C)C; Sar = CNCC(=O)O",
  "data": [
    {"molecule": "lipopolysaccharide", "values": [
      {"measurement": "reactivation of latent HIV-1 infection", "setting": "[1]", "result": "only reactivated HIV-1 infection in the latently HIV-1 infected monocytic THP89GFP cells"},
      {"measurement": "reactivation of latent HIV-1 infection", "setting": "[2]", "result": "reactivated HIV-1 infection"}
    ]},
    {"molecule": "Cc1c2oc3c(C)ccc(C(=O)N[C@@H]4C(=O)N[C@H](C(C)C)C(=O)N5CCC[C@H]5C(=O)N(C)CC(=O)N(C)[C@@H](C(C)C)C(=O)O[C@@H]4C)c3nc-2c(C(=O)N[C@@H]2C(=O)N[C@H](C(C)C)C(=O)N3CCC[C@H]3C(=O)N(C)CC(=O)N(C)[C@@H](C(C)C)C(=O)O[C@@H]2C)c(N)c1=O", "note": "[dactinomycin] (I: T[dV]P[Sar][NMeV] / II: T[dV]P[Sar][NMeV]; ester I:1-I:C, II:1-II:C; linker I:N-II:N via Actinocin(9to1))", "values": [
      {"measurement": "concentration at which it starts to act as an inhibitor of HIV-1 expression and reactivation (onset of drug toxicities)", "setting": "[3]", "result": "≥ 10", "unit": "ng/mL"},
      {"measurement": "priming effects with low concentrations of TNF-α or PMA as reactivating agents", "setting": "[3]", "result": "also observed"},
      {"measurement": "concentration of optimal priming activity", "setting": "[3]; 18 hours pretreatment, then sub-optimal HRF or TNF-α", "result": "about 4 ng/ml and ~3.18 nM"},
      {"measurement": "priming effect, virus integrated in same transcriptional orientation as host-gene", "setting": "[3]; TNF-α after 4 ng/ml dactinomycin for 18 hours", "result": "exerted its priming effect in each integration scenario"},
      {"measurement": "priming effect on HIV-1 reactivation by sub-optimal dose of HRF", "setting": "[3]; pretreatment with increasing concentrations, then sub-optimal HRF", "result": "strong priming effect"},
      {"measurement": "lowest concentration at which a priming effect was observed", "setting": "[3]; then sub-optimal HRF or TNF-α", "result": 0.5, "unit": "ng/mL"},
      {"measurement": "concentration range of efficient priming of latent HIV-2 infection", "setting": "[4]; 18 hours pretreatment, then sub-optimal HRF", "result": "2 to 8", "unit": "ng/mL"},
      {"measurement": "HIV-2 reactivation levels on costimulation", "setting": "[4]; dactinomycin pretreatment plus sub-optimal HRF", "result": "up to 90%"},
      {"measurement": "priming for reactivation in combination with sub-optimal TNF-α", "setting": "[5]; 18 hours pretreatment", "result": "potently primed latent HIV-1 infection for reactivation"},
      {"measurement": "HIV-1 reactivating capacity by itself", "setting": "[5]; no activator", "result": "did not exhibit HIV-1 reactivating capacity by itself"},
      {"measurement": "priming effect, virus integrated in converse transcriptional orientation", "setting": "[6]", "result": "exerted its priming effect in each integration scenario"},
      {"measurement": "effect on active HIV-1 infection / transcription (GFP MCF)", "setting": "[7]", "result": "without boosting active HIV-1 infection"},
      {"measurement": "effect on active HIV-1 infection / transcription (GFP MCF)", "setting": "[7]; listed as Dactinomycin", "result": "did not boost active infection, but rather inhibited active infection"}
    ]},
    {"molecule": "B1", "values": [
      {"measurement": "binding result", "setting": "[8]", "result": "binds"}
    ]}
  ]
}
